From patent US20090032411A1, “METHOD AND SYSTEM FOR DETECTING PHARMACOLOGICALLY ACTIVE SUBSTANCES BY MEASURING MEMBRANE CURRENTS WITH EXTRACELLULAR SENSORS” (Max-Planck-Gesellschaft zur Foerderung Der Wissenschaften …, priority 2006, published 2009)
Entries after “also recorded” stand apart in the source; their conditions may differ.

Tests used:
Type in all cases: cell-based
[1] = target: T1, ligand-gated ion channel 5-HT3A (Homo sapiens, UniProt P46098); assay: FET recording of the extracellular (junction) voltage signal of HEK293 cells doubly transfected with 5-HT3A and Kv1.3, ligands of 5-HT3A; conditions: for extracellular voltage signal in the cell-chip junction on application of agonist: agonist 100 μM, cells expressing both 5-HT3A and Kv1.3, FET recording; for effect on the serotonin-induced extracellular voltage signal: tropisetron 1 μM present before and during stimulation with 100 μM serotonin, doubly transfected cell
T1 construct: host or cells: HEK293
T1 sequence (P46098 24-478): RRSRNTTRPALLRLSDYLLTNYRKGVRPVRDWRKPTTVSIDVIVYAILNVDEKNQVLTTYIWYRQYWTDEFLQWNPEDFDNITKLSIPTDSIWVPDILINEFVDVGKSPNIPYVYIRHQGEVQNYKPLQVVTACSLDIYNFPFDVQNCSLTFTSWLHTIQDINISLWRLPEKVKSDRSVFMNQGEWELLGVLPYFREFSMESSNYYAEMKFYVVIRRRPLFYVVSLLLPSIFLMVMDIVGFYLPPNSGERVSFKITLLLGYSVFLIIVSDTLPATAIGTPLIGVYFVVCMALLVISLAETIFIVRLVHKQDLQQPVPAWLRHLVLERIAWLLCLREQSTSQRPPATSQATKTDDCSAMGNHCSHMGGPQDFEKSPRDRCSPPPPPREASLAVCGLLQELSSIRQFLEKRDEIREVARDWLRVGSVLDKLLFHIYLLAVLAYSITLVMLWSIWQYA
Experimental: (§1) HEK293 cells were cultured in plastic dishes (Becton Dickinson, No. 353001), in Dulbecco's modified Eagle's medium (GIBCO, No. 21885-025), supplemented with 10% heat-inactivated fetal bovine serum. The cDNA of the human ligand-gated ion channel 5-HT3A was purchased from Invitrogen (Ultimate ORF clone collection, HORF01), and subcloned into the expression plasmid pcDNA3 (Invitrogen, No. V790-20), applying standard molecular biology methods. The construction of an expression plasmid for the voltage-gated potassium channel Kv1.3 was as described in J. Kupper: Functional expression of GFP-tagged Kv1.3 and Kv1.4 channels in HEK 293 cells. Eur. J. Neurosci. 10, 3908-12 (1998). The cells were stably transfected with one of the two expression plasmids using Geneticin (GIBCO, No. 11811-064), as the selection antibiotic (500 μg/ml). After generation of stable cell lines, the cells were transiently transfected with the other of the two expression plasmids together with the EGFP-C1 plasmid (BD Biosciences Clontech, No. 632317), which served as control for successful transfection. Transfections were done using the Effectene method (Qiagen, No. 301425), at 60-80% confluency.
Silicon chips as described in M. Voelker, P. Fromherz: Signal transmission from individual mammalian nerve cell to field-effect transistor. Small 1, 206-210 (2005) with 128 Field Effect Transistors (FET) in two linear arrays and a culture chamber on top were cleaned, sterilized under UV-light and coated with 10 μg/ml fibronectin (Sigma, No. F2006). Cells were plated on these chips under normal culture conditions one day after transient transfection, and measurements were done one day after plating. Cells on transistor gates with the transiently expressed channels were identified by the green EGFP fluorescence.
During experiments the cells were flushed permanently with standard extracellular solution, consisting of (in mM): KCl 5.4, NaCl 135, CaCl2 1.8, MgCl2 1 Glucose 10, Hepes 5 (pH adjusted to 7.4 with NaOH). The ligands serotonin, CPBG (agonists of 5-HT3A) tropisetron and margatoxin (antagonists of 5-HT3A and Kv1.3, respectively), were obtained from Sigma (No. H9523, C144, T104, M8278), and dissolved in extracellular solution.
Ligand solutions were applied rapidly (ms range), with a double barrelled glass pipette (Theta-Tube), connected to a piezoelectric actuator (Burleigh, LSS-3100). Different ligand solutions were directed to the glass pipette by an eight-channel valve control system (ALA, BPS-8).
During application of ligands, the voltage in the cleft between transfected cells and the chip surface was probed with the gates of Field Effect Transistors under the cells.

[2] = target: T2, voltage-gated potassium channel Kv1.3 (Homo sapiens, UniProt P22001); assay: FET recording of the extracellular (junction) voltage signal of HEK293 cells doubly transfected with 5-HT3A and Kv1.3, blocker of Kv1.3
T2 construct: expressed in transfected cells; host or cells: HEK293
Experimental: as §1, with “Transfections were done using the Effectene method (Qiagen, No. 301425), at 60-80% confluency.” left out
(§2) Silicon chips as described in M. Voelker, P. Fromherz: Signal transmission from individual mammalian nerve cell to field-effect transistor. […] Cells on transistor gates with the transiently expressed channels were identified by the green EGFP fluorescence. […]

[3] = target: T1, ligand-gated ion channel 5-HT3A; assay: FET recording of junction voltage of HEK293 cells expressing only 5-HT3A
Experimental: as §1, with “Transfections were done using the Effectene method (Qiagen, No. 301425), at 60-80% confluency.” left out
as §2

[4] = target: T3, voltage-gated channel Kv1.3 (Homo sapiens, UniProt P22001); assay: FET recording of junction voltage of HEK293 cells expressing only Kv1.3
T3 construct: expressed in transfected cells; host or cells: HEK293
Experimental: as §1, with “Transfections were done using the Effectene method (Qiagen, No. 301425), at 60-80% confluency.” left out
as §2

T2 sequence (P22001 whole entry): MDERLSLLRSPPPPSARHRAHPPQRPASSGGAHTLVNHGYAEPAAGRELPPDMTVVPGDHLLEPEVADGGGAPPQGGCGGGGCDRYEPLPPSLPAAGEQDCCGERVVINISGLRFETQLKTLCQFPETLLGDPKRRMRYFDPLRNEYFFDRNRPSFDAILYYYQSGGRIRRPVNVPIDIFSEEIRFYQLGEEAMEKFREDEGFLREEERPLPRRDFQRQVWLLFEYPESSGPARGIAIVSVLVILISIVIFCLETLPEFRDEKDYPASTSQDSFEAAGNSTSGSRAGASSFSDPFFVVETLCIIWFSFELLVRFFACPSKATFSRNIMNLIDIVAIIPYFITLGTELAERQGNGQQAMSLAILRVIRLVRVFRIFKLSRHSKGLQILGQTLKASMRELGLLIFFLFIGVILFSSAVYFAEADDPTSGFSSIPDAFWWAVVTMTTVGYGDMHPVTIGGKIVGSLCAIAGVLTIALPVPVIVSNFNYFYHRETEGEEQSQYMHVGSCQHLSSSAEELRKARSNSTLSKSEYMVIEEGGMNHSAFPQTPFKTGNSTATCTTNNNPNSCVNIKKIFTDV
T3 sequence (P22001 whole entry): as above

In the case of `NC(N)=NC(N)=Nc1cccc(Cl)c1` [CPBG], the “extracellular voltage signal in the cell-chip junction on application of agonist” value [1] is reported as “triggered a biphasic voltage signal; also recorded: caused a biphasic voltage signal”.
For `CN1[C@@H]2CC[C@H]1C[C@@H](OC(=O)c1c[nH]c3ccccc13)C2` [tropisetron], the “effect on the serotonin-induced extracellular voltage signal” value (“effect” below) [1] was “blocked the signal” and the “effect” value ([1]; listed as Tropisetron) was “The signal was lost”.
With “margatoxin (TIINVKCTSPKQCLPPCKAQFGQSAGAKCMNGKCKCYPH; UniProt P40755 1-39, looked up)” the “effect” value ([2]; 5 nM margatoxin present during 100 μM serotonin stimulation, doubly transfected cell) was “The signal was reduced; also recorded: blocked the signal” and the “serotonin-triggered signal after removal of margatoxin (reversibility)” value ([2]; same cell, after removal of 5 nM margatoxin) was “A biphasic voltage signal was recovered”.
For `NCCc1c[nH]c2ccc(O)cc12` [serotonin], the “extracellular voltage signal in the cell-chip junction on application of agonist” value [1] was “triggered a biphasic voltage signal; also recorded: Biphasic extracellular voltage signal; also recorded: caused a biphasic voltage signal”, the “voltage signal in the cell-chip junction upon stimulation with serotonin” value [3] was “failed to cause a voltage signal” and the “voltage signal in the cell-chip junction upon stimulation with serotonin” value [4] was “failed to produce a signal”.
